Test results taken from ChEMBL document CHEMBL5321199, “Development of a series of quinazoline-2,5-diamine derivatives as potent hematopoietic progenitor kinase 1 (HPK1) inhibitors” (Eur J Med Chem, 2023).
Active and inactive are the calls of the source. The rule behind the calls is not given here.

Experiments:
[1] = target: T1, Mitogen-activated protein kinase kinase kinase kinase 1 (Homo sapiens, UniProt Q92918); test: Inhibition of HPK1 (unknown origin) using myelin basic protein as substrate incubated for 60 mins in presence of ATP by ADP-Glo kinase assay
Target sequence in this assay (Q92918 whole entry): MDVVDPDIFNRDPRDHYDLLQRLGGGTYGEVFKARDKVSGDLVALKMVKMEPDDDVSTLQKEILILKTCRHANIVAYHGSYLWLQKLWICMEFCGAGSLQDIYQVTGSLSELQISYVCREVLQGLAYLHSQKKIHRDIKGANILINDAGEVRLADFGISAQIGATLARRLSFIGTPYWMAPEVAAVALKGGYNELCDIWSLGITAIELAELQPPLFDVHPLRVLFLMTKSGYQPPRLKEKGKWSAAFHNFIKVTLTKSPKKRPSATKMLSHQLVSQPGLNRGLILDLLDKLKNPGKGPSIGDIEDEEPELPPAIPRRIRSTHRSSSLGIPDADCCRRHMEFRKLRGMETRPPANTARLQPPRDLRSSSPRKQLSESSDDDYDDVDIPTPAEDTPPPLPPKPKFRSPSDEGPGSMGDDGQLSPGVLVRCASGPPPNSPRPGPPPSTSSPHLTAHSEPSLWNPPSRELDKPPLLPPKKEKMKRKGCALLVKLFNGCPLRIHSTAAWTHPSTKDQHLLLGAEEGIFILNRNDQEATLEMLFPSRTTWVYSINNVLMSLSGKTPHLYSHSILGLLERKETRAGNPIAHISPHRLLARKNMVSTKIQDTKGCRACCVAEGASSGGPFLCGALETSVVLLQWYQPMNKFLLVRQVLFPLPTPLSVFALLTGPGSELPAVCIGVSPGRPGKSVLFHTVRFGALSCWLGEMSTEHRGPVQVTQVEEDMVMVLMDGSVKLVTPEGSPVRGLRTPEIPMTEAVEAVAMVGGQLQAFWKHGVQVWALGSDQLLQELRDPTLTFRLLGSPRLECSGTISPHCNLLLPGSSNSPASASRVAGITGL

[2] = target: T1, Mitogen-activated protein kinase kinase kinase kinase 1; test: Inhibition of HPK1 (unknown origin) at 100 nM using myelin basic protein as substrate incubated for 60 mins in presence of ATP by ADP-Glo kinase assay relative to control
Target sequence in this assay (Q92918 whole entry, looked up): as the sequence (Q92918 whole entry) above

[3] = target: T1, Mitogen-activated protein kinase kinase kinase kinase 1; test: Inhibition of HPK1 (unknown origin) at 1 uM using myelin basic protein as substrate incubated for 60 mins in presence of ATP by ADP-Glo kinase assay relative to control
Target sequence in this assay (Q92918 whole entry, looked up): as the sequence (Q92918 whole entry) above

[4] = target: T1, Mitogen-activated protein kinase kinase kinase kinase 1; test: Inhibition of HPK1 in human Jurkat E6.1 cells assessed as reduction in SLP76 phosphorylation at Serine 376 residue preincubated with compound for 2 hrs followed by stimulation with alphaCD3/CD28 measured after 10 mins by Western blotting analysis; assay type: cell-based
Target sequence in this assay (Q92918 whole entry): as above

[5] = target: T1, Mitogen-activated protein kinase kinase kinase kinase 1; test: Inhibition of HPK1 in human Jurkat E6.1 cells assessed as reduction in SLP76 phosphorylation at Serine 376 residue at 33 nM preincubated with compound for 2 hrs followed by stimulation with alphaCD3/CD28 measured after 10 mins by Western blotting analysis; assay type: cell-based; conditions: time 130.0 min
Target sequence in this assay (Q92918 whole entry, looked up): as the sequence (Q92918 whole entry) above

[6] = target: T1, Mitogen-activated protein kinase kinase kinase kinase 1; test: Inhibition of HPK1 in human PBMC cells assessed as increase in IL-2 release at above 1 uM preincubated with compound for 1 hr followed by stimulation with alphaCD3/CD28 measured after 48 hrs by ELISA assay; assay type: cell-based; conditions: time 49.0 hrs
Target sequence in this assay (Q92918 whole entry, looked up): as the sequence (Q92918 whole entry) above

[7] = target: T1, Mitogen-activated protein kinase kinase kinase kinase 1; test: Inhibition of HPK1 in human Jurkat E6.1 cells assessed as phosphorylation of SLP76 at serine 376 residue incubated for 4 hrs by HTRF assay; assay type: cell-based
Target sequence in this assay (Q92918 whole entry): as above

[8] = target: T1, Mitogen-activated protein kinase kinase kinase kinase 1; test: Inhibition of N-terminal DYKDDDDK tagged HPK1 CD (1 to 346 residues) (unknown origin) incubated for 1 hr in presence of ATP by TR-FRET assay
Target sequence in this assay (Q92918 whole entry): as above

[9] = target: T1, Mitogen-activated protein kinase kinase kinase kinase 1; test: Inhibition of HPK1 in human PBMC cells assessed as reduction in SLP76 phosphorylation at Ser376 residue preincubated with compound for 1 hr followed by stimulation with CD3/CD28-dynabead by ELISA assay; assay type: cell-based
Target sequence in this assay (Q92918 whole entry): as above

[10] = target: T1, Mitogen-activated protein kinase kinase kinase kinase 1; test: Inhibition of HPK1 in human PBMC cells assessed as increase in IL-2 release preincubated with compound for 1 hr followed by stimulation with CD3/CD28-dynabead measured after 16 to 18 hrs by ELISA assay; assay type: cell-based
Target sequence in this assay (Q92918 whole entry): as above

[11] = target: T1, Mitogen-activated protein kinase kinase kinase kinase 1; test: Inhibition of HPK1 in human Jurkat E6.1 cells assessed as reduction in SLP76 phosphorylation at Serine 376 residue at 0.4 to 100 nM preincubated with compound for 2 hrs followed by stimulation with alphaCD3/CD28 measured after 10 mins by Western blotting analysis; assay type: cell-based; conditions: dose 0.4-100 nM, time 130.0 min
Target sequence in this assay (Q92918 whole entry, looked up): as the sequence (Q92918 whole entry) above

Row | SMILES | IC50 [1] [nM] | inhibition [2] [%] | inhibition [3] [%] | further results
1 | CNCCc1ccc(Nc2ncc3c(N)cc(-c4cnc5c(c4C)NCCO5)cc3n2)cc1 | 5.6 | – | – | –
2 | CCn1cc(Nc2ncc3c(N)cc(-c4cnc5c(c4C)NCCO5)cc3n2)cn1 | 12 | – | – | –
3 | Nc1cncc(-c2cc(N)c3cnc(Nc4cnn(C5CC5)c4)nc3c2)c1 | 33.2 | 80 | – | –
4 | Cc1c(-c2cc(N)c3cnc(Nc4cnn(C)c4C)nc3c2)cnc2c1NCCO2 | 35.7 | – | – | –
5 | Cc1cncc(-c2cc(N)c3cnc(Nc4cnn(C5CC5)c4)nc3c2)c1 | – | 42.7 | 87.6 | –
6 | Cc1c(-c2cc(N)c3cnc(Nc4ccccc4)nc3c2)cnc2c1NCCO2 | 6.2 | – | – | –
7 | Cc1c(-c2cc(N)c3cnc(Nc4ccccn4)nc3c2)cnc2c1NCCO2 | 95.7 | – | – | –
8 | Cc1c(-c2cc(N)c3cnc(Nc4ccc5c(c4)CN(C(C)C)CC5)nc3c2)cnc2c1NCCO2 | 5.2 | – | – | –
9 | Nc1cc(-c2ccncc2)cc2nc(Nc3cnn(C4CC4)c3)ncc12 | – | -3.3 | 24.1 | –
10 | Cn1nccc1-c1cc(N)c2cnc(Nc3cnn(C4CC4)c3)nc2c1 | – | 23.2 | 49.2 | –
11 | N#Cc1ccncc1-c1cc(N)c2cnc(Nc3cnn(C4CC4)c3)nc2c1 | – | 36.3 | 85.5 | –
12 | Cc1c(-c2cc(N)c3cnc(Nc4ccc5c(c4)CCN(C)C5)nc3c2)cnc2c1NCCO2 | 4.8 | – | – | –
13 | Cc1c(-c2cc(N)c3cnc(Nc4cnn(C5CC5)c4)nc3c2)cnn1C | 61.1 | 53.6 | 90.9 | –
14 | Cc1c(-c2cc(N)c3cnc(Nc4ccc5c(c4)CNCC5)nc3c2)cnc2c1NCCO2 | 3 | – | – | –
15 | Nc1cc(-c2ccccc2)cc2nc(Nc3cnn(C4CC4)c3)ncc12 | – | 1.6 | 33.6 | –
16 | Cc1c(N)cncc1-c1cc(N)c2cnc(Nc3cnn(C4CC4)c3)nc2c1 | 10.4 | 93 | – | –
17 | Nc1cc(-c2cccnc2)cc2nc(Nc3cnn(C4CC4)c3)ncc12 | 61.4 | 56.2 | 86 | –
18 | Cc1c(-c2cc(N)c3cnc(Nc4cc(C)n(C)n4)nc3c2)cnc2c1NCCO2 | 53 | – | – | –
19 | COc1ncc(-c2cc(N)c3cnc(Nc4cnn(C5CC5)c4)nc3c2)cc1N | – | 0.1 | 60.6 | –
20 | CNCCc1cccc(Nc2ncc3c(N)cc(-c4cnc5c(c4C)NCCO5)cc3n2)c1 | 6 | – | – | –
21 | Cn1cc(-c2cc(N)c3cnc(Nc4cnn(C5CC5)c4)nc3c2)cn1 | 50.5 | 68.6 | 95.8 | –
22 | Cc1c(-c2cc(N)c3cnc(Nc4cnn(C(C)C)c4)nc3c2)cnc2c1NCCO2 | 6.4 | – | – | –

Row | SMILES | IC50 [1] [nM] | inhibition [2] [%] | inhibition [3] [%] | further results
23 | Cc1c(-c2cc(N)c3cnc(Nc4cccnc4)nc3c2)cnc2c1NCCO2 | 5.5 | – | – | –
24 | CNCc1cccc(Nc2ncc3c(N)cc(-c4cnc5c(c4C)NCCO5)cc3n2)c1 | 5 | – | – | –
25 | Cc1ccc(-c2cc(N)c3cnc(Nc4cnn(C5CC5)c4)nc3c2)cn1 | – | 36.2 | 85.9 | –
26 | Cc1c(-c2cc(N)c3cnc(Nc4ccn(C)n4)nc3c2)cnc2c1NCCO2 | 12.7 | – | – | –
27 | Cc1ccncc1-c1cc(N)c2cnc(Nc3cnn(C4CC4)c3)nc2c1 | 17.9 | 87.2 | 98.1 | –
28 | Cc1c(-c2cc(N)c3cnc(Nc4cnn(C5CC5)c4)nc3c2)cnc2c1NCCO2 | 5.7 | 96.3 | – | IC50 [4]: 23.1 nM; inhibition [5]: Active; inhibition [6]: Active
29 | Cc1c(-c2cc(N)c3cnc(Nc4ccc5c(c4)CCNC5)nc3c2)cnc2c1NCCO2 | 4.3 | – | – | –
30 | Cc1c(-c2cc(N)c3cnc(Nc4ccncc4)nc3c2)cnc2c1NCCO2 | 5.7 | – | – | –
31 | CN1CCC(c2ncc(-c3cnc(N)c(OCc4cccc(C#CC(C)(C)O)c4)c3)s2)CC1 | – | – | – | IC50 [7]: < 100 nM
32 | CNCc1ccc(Nc2ncc3c(N)cc(-c4cnc5c(c4C)NCCO5)cc3n2)cc1 | 4.3 | – | – | –
33 | Cc1c(-c2cc3cc(NC(=O)C4CC4)ncc3c(N)c2F)cnc2c1NCCO2 | 3.1 | 97.9 | – | IC50 [8]: 0.067 nM; IC50 [9]: 84 nM; EC50 [10]: 16 nM; IC50 [4]: 6.1 nM; inhibition [11]: Active
34 | Cc1c(-c2cc(N)c3cnc(Nc4cnn(C)c4)nc3c2)cnc2c1NCCO2 | 7.8 | – | – | –
35 | Cc1c(-c2cc(N)c3cnc(NC(=O)C4CC4)nc3c2)cnc2c1NCCO2 | – | 4.7 | – | –
36 | Cc1nn(C)cc1-c1cc(N)c2cnc(Nc3cnn(C4CC4)c3)nc2c1 | – | -5.1 | 25.8 | –
37 | COc1cc2c(cc1Nc1ncc3c(N)cc(-c4cnc5c(c4C)NCCO5)cc3n1)CN(C)CC2 | 7.3 | – | – | –
38 | CC1(C)OC(=O)c2ccc(Nc3ncc(-c4nnco4)c(N[C@H](CO)c4ccccc4)n3)cc21 | – | 92.5 | 99.7 | –
39 | Nc1cc(-c2ccccn2)cc2nc(Nc3cnn(C4CC4)c3)ncc12 | – | -6.9 | 30.3 | –
40 | CCN1CCc2ccc(Nc3ncc4c(N)cc(-c5cnc6c(c5C)NCCO6)cc4n3)cc2C1 | 6.9 | – | – | –
41 | Cc1nn(C)c(C)c1Nc1ncc2c(N)cc(-c3cnc4c(c3C)NCCO4)cc2n1 | – | 7.5 | – | –
42 | CCn1ccc(Nc2ncc3c(N)cc(-c4cnc5c(c4C)NCCO5)cc3n2)n1 | 15.5 | – | – | –
43 | Cc1nn(C)cc1Nc1ncc2c(N)cc(-c3cnc4c(c3C)NCCO4)cc2n1 | 7.9 | – | – | –
